Data from US10835456B2, “Propyl gallate-containing vitamin preparations” (BASF SE, priority 2016, dated 2020).
“And” between values parts separate entries of the source, which are not always exact repeats. Equal values may be shown once.

Tests used:
Type in all cases: physicochemical
[1] = Stress test: stability in premix mixture, stored at 40° C. and 70% humidity for 4 weeks, retention of vitamin content; conditions: for Retention Active ingredient content after 4-week premix test: Table 3b
Method: The stress test for the vitamins is configured such that specimens of 100 mg in each case of the formulation produced and 4 g of premix mixture are weighed into glass vessels. The premix mixture consists of 50% by weight of fine lime (particle size <1000 μm), 20% by weight of wheat bran (particle size <1000 μm), 20% by weight of 50% silica-supported choline chloride (particle size <1000 μm) and 10% by weight of trace element mixture (particle size 100-500 μm). The trace element mixture is composed of 46.78% by weight of FeSO4x7H2O (100-500 μm), 37.43% by weight of CuSO4x5H2O (100-500 μm), 11.79% by weight of ZnO (<500 μm), 3.61% by weight of MnO and 0.39% by weight of CoCO3. After addition of all ingredients, the specimens are mixed cautiously, with performance of the mixing mechanically or else by hand, and these specimens (A) are stored in a climate-controlled chamber at 40° C. and 70% humidity for 4 weeks. […]
For this purpose, specimens each of 100 mg of the formulation produced and 4 g of premix mixture are weighed out in glass vessels (50 mL glass vials). The premix mixture consists of 50% by weight of fine lime (particle size <1000 μm), 20% by weight of wheat bran (particle size <1000 μm), 20% by weight of 50% silica-supported choline chloride (particle size <1000 μm) and 10% by weight of trace element mixture (particle size 100-500 μm), said trace element mixture consisting of 46.78% by weight of FeSO4x7H2O (100-500 μm), 37.43% by weight of CuSO4x5H2O (100-500 μm), 11.79% by weight of ZnO (<500 μm), 3.61% by weight of MnO and 0.39% by weight of CoCO3. After addition of all ingredients, the specimens are mixed cautiously, where the mixing can be performed mechanically or else by hand, and these specimens (A) are stored in a climate-controlled chamber at 40° C. and 70% humidity for 4 weeks. An identical test is conducted with a comparative sample (B) which is of identical composition but which comprises, rather than propyl gallate, the same amount of ethoxyquin. […] The ratio of the contents after (A2), (B2) and before the storage (A1) and (B1) are used here to calculate the retention (A2/A1) or (B2/B1) of the samples. For the formulations of the invention, a quotient (A2/A1):(B2/B1) of at least 0.75 is determined here. Preferably, for the formulations of the invention, a quotient of at least 1 is obtained.
The stability of the particles thus produced was tested in a stress test. For this purpose, specimens each of 100 mg of the particles produced and 4 g of premix mixture were weighed into 50 mL glass bottles. The premix mixture consisted of 50% by weight of fine lime (particle size <1000 μm), 20% by weight of wheat bran (particle size <1000 μm), 20% by weight of 50% silica-supported choline chloride (particle size <1000 μm) and 10% by weight of trace element mixture (particle size 100-500 μm), and the trace element mixture of 46.78% by weight of FeSO4x7H2O (100-500 μm), 37.43% by weight of CuSO4x5H2O (100-500 μm), 11.79% by weight of ZnO (<500 μm), 3.61% by weight of MnO and 0.39% by weight of CoCO3. After addition of all ingredients, the specimens were carefully mixed by hand. These specimens were stored in a climate-controlled chamber at 40° C. and 70% air humidity for 4 weeks. […]

[2] = Particle size after dissolution in water by photon correlation spectroscopy (Malvern Zetasizer Nano ZSP); conditions: PCS; for particle size / polydispersity index PDI: dry powder with propyl gallate added to the dispersion (Examples 1, 3b, 3c, 3d)
Method: The particle size is determined by means of a Malvern Zetasizer Nano ZSP.
30 g of citranaxanthin were suspended in 240 g of isopropanol together with 1.1 g of ascorbyl palmitate and, with setting of the pressure-limiting valve to 30 bar, mixed continuously with 390 g of isopropanol in a mixing chamber A. At a metering rate of 6 L/h on the suspension side and of 9 L/h on the solvent side, a mixing temperature of 170° C. was established in the mixing chamber A. After a residence time of 0.3 second, the molecularly disperse solution was mixed in mixing chamber B with a solution of 32 g of gelatin, 71.4 g of sucrose and 50 g of glucose syrup in 4000 g of water at a throughput rate of 100 L/h. After the solvent had been removed under reduced pressure in a distillation apparatus, an active ingredient dispersion was obtained, to which 8 g of sunflower oil and 8 g of propyl gallate were added. The propyl gallate was predissolved here in 200 mL of water and adjusted to pH 7 with NaOH. Subsequently, the dispersion was converted to a stable, water-soluble dry powder by spray drying. After dissolution in water, by photon correlation spectroscopy (PCS), a particle size of 386 nm (standard deviation 142.5, polydispersity index PDI 0.185, D(95): 660 nm) was measured (Malvern Zetasizer Nano ZSP).

[3] = as above; conditions: PCS
[4] = Table 4b, D,L-α tocopherol 4% by wt. (in active ingredient phase) + propyl gallate 4% by wt. (in protective colloid phase)
[5] = Table 4b, mixed tocopherol 4% by wt. (in active ingredient phase) + propyl gallate 4% by wt. (in protective colloid phase)
[6] = dry powder with 4% by weight of propyl gallate and 4% by weight of butylhydroxytoluene
[7] = dry powder with 4% by weight of propyl gallate and 4% by weight of mixed tocopherol

SMILES: CC1=C(/C=C/C(C)=C/C=C/C(C)=C/C=C/C=C(C)/C=C/C=C(C)/C=C/C2=C(C)C(=O)CCC2(C)C)C(C)(C)CCC1=O [Canthaxanthin]
- Retention Active ingredient content after 4-week premix test ([1]; propyl gallate 4%, dispersion): 61.2%
- Retention Active ingredient content after 4-week premix test ([1]; propyl gallate 6%, dispersion): 77.9%
- Retention Active ingredient content after 4-week premix test ([1]; propyl gallate 8%, dispersion): 83.3%
- Retention Active ingredient content after 4-week premix test ([1]; propyl gallate 9%, dispersion): 82.4%
- Retention Active ingredient content after 4-week premix test ([1]; propyl gallate 10%, dispersion): 69.8%
- Retention Active ingredient content after 4-week premix test ([1]; propyl gallate 12%, dispersion): 47.2%
- Retention Active ingredient content after 4-week test ([1]; Table 4a, D,L-α tocopherol 4% by wt., active ingredient phase): 45.7%
- Retention Active ingredient content after 4-week test ([1]; Table 4a, mixed tocopherol 4% by wt., active ingredient phase): 48.7%
- Retention Active ingredient content after 4-week test [1, 4]: 57.2%
- Retention Active ingredient content after 4-week test [1, 5]: 78.1%
- Retention Canthaxanthin after 4-week test ([1]; Table 5a, propyl gallate 0% by wt., mixed tocopherol 4% by wt.): 48.7%
- Retention Canthaxanthin after 4-week test ([1]; Table 5a, propyl gallate 4% by wt., mixed tocopherol 0% by wt.): 61.2%
- Retention Canthaxanthin after 4-week test ([1]; Table 5a, propyl gallate 4% by wt., mixed tocopherol 2% by wt.): 80.8%
- Retention Canthaxanthin after 4-week test ([1]; Table 5a, propyl gallate 4% by wt., mixed tocopherol 4% by wt.): 80.3%
- Retention Canthaxanthin after 4-week test ([1]; Table 5a, propyl gallate 6% by wt., mixed tocopherol 0% by wt.): 71.3%
- Retention Canthaxanthin after 4-week test ([1]; Table 5a, propyl gallate 8% by wt., mixed tocopherol 0% by wt.): 83.3%
- Retention Canthaxanthin after 4-week test ([1]; Table 5b, propyl gallate 4% by wt. (in protective colloid phase pH 7), mixed tocopherol 1% by wt. (in active ingredient phase)): 72.8%
- Retention Canthaxanthin after 4-week test ([1]; Table 5b, propyl gallate 4% by wt. (in protective colloid phase pH 7), mixed tocopherol 2% by wt. (in active ingredient phase)): 76%
- Retention Canthaxanthin after 4-week test ([1]; Table 5b, propyl gallate 4% by wt. (in protective colloid phase pH 7), mixed tocopherol 4% by wt. (in active ingredient phase)): 80.6%
- D(95) ([2]; dry powder with propyl gallate added to the dispersion (Examples 1, 3b)): 594 nm
- particle size [2]: 290 nm
- polydispersity index PDI [2]: 0.193

SMILES: CC(=O)/C=C/C(C)=C/C=C/C(C)=C/C=C/C=C(C)/C=C/C=C(C)/C=C/C1=C(C)CCCC1(C)C [Citranaxanthin]
- particle size [3, 6]: 290 nm
- polydispersity index PDI [3, 6]: 0.180
- particle size [3, 7]: 280 nm
- polydispersity index PDI [3, 7]: 0.185
- Retention Active ingredient content after 4-week test ([1]; Table 3a, propyl gallate 0% by wt., dispersion): 7.9%
- Retention Active ingredient content after 4-week test ([1]; Table 3a, propyl gallate 2% by wt., dispersion): 20.2%
- Retention Active ingredient content after 4-week test ([1]; Table 3a, propyl gallate 3% by wt., dispersion): 26.7%
- Retention Active ingredient content after 4-week test ([1]; Table 3a, propyl gallate 4% by wt., dispersion): 47.8%
- Retention Active ingredient content after 4-week test ([1]; Table 3a, propyl gallate 5% by wt., dispersion): 45.7%
- Retention Active ingredient content after 4-week test ([1]; Table 3a, propyl gallate 6% by wt., dispersion): 45.9%
- Retention Active ingredient content after 4-week test ([1]; Table 3a, propyl gallate 7% by wt., dispersion): 49.5%
- Retention Active ingredient content after 4-week test ([1]; Table 3a, propyl gallate 8% by wt., dispersion): 55.9%
- Retention Active ingredient content after 4-week test ([1]; Table 3a, propyl gallate 8.5% by wt., dispersion): 51.9%
- Retention Active ingredient content after 4-week test ([1]; Table 3a, propyl gallate 9% by wt., dispersion): 57.4%
- Retention Active ingredient content after 4-week test ([1]; Table 3a, propyl gallate 10% by wt., dispersion): 19.6%
- Retention Active ingredient content after 4-week test [1, 4]: 21.3%
- Retention Active ingredient content after 4-week test [1, 5]: 67.5%
- Retention Canthaxanthin after 4-week test ([1]; Table 5c, propyl gallate 0% by wt., mixed tocopherol 4% by wt.): 10.8%
- Retention Canthaxanthin after 4-week test ([1]; Table 5c, propyl gallate 4% by wt., mixed tocopherol 0% by wt.): 39.1%
- Retention Canthaxanthin after 4-week test ([1]; Table 5c, propyl gallate 4% by wt., mixed tocopherol 4% by wt.): 66.5%
- Retention Canthaxanthin after 4-week test ([1]; Table 5d, 4% by wt. of ethoxyquin): 79.3%
- Retention Canthaxanthin after 4-week test ([1]; Table 5d, propyl gallate 0% by wt., BHT 4% by wt.): 56.1% and 65.5% and 67.9%
- Retention Canthaxanthin after 4-week test ([1]; Table 5d, propyl gallate 4% by wt., BHT 0% by wt.): 61.2%
- Retention Canthaxanthin after 4-week test ([1]; Table 5d, propyl gallate 4% by wt., BHT 4% by wt.): 82.3%
- Retention Active ingredient content after 4-week test ([1]; propyl gallate 4% by wt. added to dispersion in solid form without pre-dissolution): 47.2% and 44.9%
- Retention Active ingredient content after 4-week test ([1]; propyl gallate 4% by wt. added to dispersion, dissolved in water pH 7): 46% and 49.4% and 47.8%
- Retention (active constituent after 4 weeks in the test) ([1]; propyl gallate 4% by wt. added to dispersion, pH of sprayed dispersion 4.5): 42.2%
- Retention (active constituent after 4 weeks in the test) ([1]; propyl gallate 4% by wt. added to dispersion, pH of sprayed dispersion 6): 39.1%
- Retention (active constituent after 4 weeks in the test) ([1]; propyl gallate 4% by wt. added to dispersion, pH of sprayed dispersion 7): 47.8%
- Retention (active constituent after 4 weeks in the test) ([1]; propyl gallate 4% by wt. added to dispersion, pH of sprayed dispersion 8): 49.4%
- Retention (active constituent after 4 weeks in the test) ([1]; propyl gallate 4% by wt. added to dispersion, pH of sprayed dispersion 9): 28.2%
- Retention (active constituent after 4 weeks in the test) ([1]; propyl gallate 4% by wt. added to dispersion, pH of sprayed dispersion 10): 36.4%
- Retention (active constituent after 4 weeks in the test) ([1]; propyl gallate 4% by wt. added to dispersion, pH of sprayed dispersion 11): 14.7%
- Retention Active ingredient content after 4-week test ([1]; propyl gallate 4% by wt. in colloid phase, pH of the colloid phase 8.5-9.5): 13.4%
- Retention Active ingredient content after 4-week test ([1]; propyl gallate 4% by wt. in colloid phase, pH preadjustment to 7, then adjustment to pH 8.5 at maximum): 44.1%

SMILES: CC1=C(/C=C/C(C)=C/C=C/C(C)=C/C=C/C=C(C)/C=C/C=C(C)/C=C/C2=C(C)CCCC2(C)C)C(C)(C)CCC1 [β-carotene]
- Retention Active ingredient content after 4-week test ([1]; Table 3d, ethoxyquin 4% by wt., dispersion): 22.2%
- Retention Active ingredient content after 4-week test ([1]; Table 3d, propyl gallate 4% by wt., dispersion): 30.3%
- particle size [2]: 262 nm
- polydispersity index PDI [2]: 0.268
